Results from patent publication US11584747B2, “Substituted pyridopyrimidinonyl compounds useful as T cell activators” (BRISTOL-MYERS SQUIBB COMPANY, priority 2019, dated 2023).
Like-named read-outs stand apart in the source and are kept apart here.

Experiments:
[1] = test system: human venous whole blood (IFN-γ); test: Human whole blood IFN-γ assay; format: cell-based
Protocol: Human venous whole blood (22.5 μL per well), obtained from healthy donors, was pre-treated with compounds for one hour at 37° C. in a humidified 95% air/5% CO2 incubator. The blood was stimulated with 2.5 μL anti-human CD3 and anti-CD28 mAb at a final concentration of 1 μg/mL each for 24 hours at 37° C. IFN-γ in the supernatants was measured using AlphLISA kit (Cat #AL217).

human DGKζ = human DGKζ (Homo sapiens (Human), UniProt Q13574); test: DGKζ LIPGLO assay (extruded liposome substrate, ADP-Glo luminescence); format: biochemical
human DGKα = human DGKα (Homo sapiens (Human), UniProt P23743); test: DGKα LIPGLO assay (extruded liposome substrate, ADP-Glo luminescence); format: biochemical
[2] = human whole blood, anti-CD3 plus anti-CD28 stimulation, 24 hours, read-out: IFN-γ Whole Blood EC50
[3] = liposome (LIPGLO) assay, read-out: DGK zeta (liposome assay) IC50
[4] = liposome (LIPGLO) assay, read-out: DGK alpha (liposome assay) IC50
[5] = whole blood, normalized to 3 μM reference compound as 100% activation, read-out: IFN-γ Whole Blood Normalized EC50
[6] = liposome assay, read-out: DGK zeta LIPGLO IC50
[7] = liposome assay, read-out: DGK alpha LIPGLO IC50
[8] = Homo sapiens, whole blood, normalized to 3 μM reference compound as 100% activation, read-out: IFN-γ Whole Blood Normalized EC50

Chain of human DGKζ (Q13574 other isoform, or with tags, fused parts or gaps): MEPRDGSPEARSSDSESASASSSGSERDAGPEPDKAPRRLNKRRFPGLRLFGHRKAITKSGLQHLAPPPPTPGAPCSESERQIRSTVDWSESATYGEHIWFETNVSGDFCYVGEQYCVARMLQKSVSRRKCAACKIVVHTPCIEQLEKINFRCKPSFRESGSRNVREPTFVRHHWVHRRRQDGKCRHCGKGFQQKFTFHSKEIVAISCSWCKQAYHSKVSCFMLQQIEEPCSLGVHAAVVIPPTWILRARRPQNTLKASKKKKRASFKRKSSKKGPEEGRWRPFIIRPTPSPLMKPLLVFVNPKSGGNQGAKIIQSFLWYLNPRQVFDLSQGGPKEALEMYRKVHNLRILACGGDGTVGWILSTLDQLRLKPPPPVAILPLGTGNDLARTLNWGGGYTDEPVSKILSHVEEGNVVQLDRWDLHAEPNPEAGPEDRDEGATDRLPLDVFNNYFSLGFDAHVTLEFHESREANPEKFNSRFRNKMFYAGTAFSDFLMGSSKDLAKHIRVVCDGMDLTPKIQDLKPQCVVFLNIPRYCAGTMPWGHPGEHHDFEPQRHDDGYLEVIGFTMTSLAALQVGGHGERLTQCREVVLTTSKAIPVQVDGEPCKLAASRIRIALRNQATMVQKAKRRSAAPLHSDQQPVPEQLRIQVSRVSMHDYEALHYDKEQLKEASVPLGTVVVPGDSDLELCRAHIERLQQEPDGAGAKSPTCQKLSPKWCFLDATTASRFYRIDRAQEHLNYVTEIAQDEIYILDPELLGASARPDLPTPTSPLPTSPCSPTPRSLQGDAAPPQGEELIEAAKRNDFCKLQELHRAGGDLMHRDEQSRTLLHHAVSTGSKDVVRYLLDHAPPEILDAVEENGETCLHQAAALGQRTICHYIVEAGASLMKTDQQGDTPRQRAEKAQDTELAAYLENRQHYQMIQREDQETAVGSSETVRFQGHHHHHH
Chain of human DGKα (P23743 whole entry, looked up): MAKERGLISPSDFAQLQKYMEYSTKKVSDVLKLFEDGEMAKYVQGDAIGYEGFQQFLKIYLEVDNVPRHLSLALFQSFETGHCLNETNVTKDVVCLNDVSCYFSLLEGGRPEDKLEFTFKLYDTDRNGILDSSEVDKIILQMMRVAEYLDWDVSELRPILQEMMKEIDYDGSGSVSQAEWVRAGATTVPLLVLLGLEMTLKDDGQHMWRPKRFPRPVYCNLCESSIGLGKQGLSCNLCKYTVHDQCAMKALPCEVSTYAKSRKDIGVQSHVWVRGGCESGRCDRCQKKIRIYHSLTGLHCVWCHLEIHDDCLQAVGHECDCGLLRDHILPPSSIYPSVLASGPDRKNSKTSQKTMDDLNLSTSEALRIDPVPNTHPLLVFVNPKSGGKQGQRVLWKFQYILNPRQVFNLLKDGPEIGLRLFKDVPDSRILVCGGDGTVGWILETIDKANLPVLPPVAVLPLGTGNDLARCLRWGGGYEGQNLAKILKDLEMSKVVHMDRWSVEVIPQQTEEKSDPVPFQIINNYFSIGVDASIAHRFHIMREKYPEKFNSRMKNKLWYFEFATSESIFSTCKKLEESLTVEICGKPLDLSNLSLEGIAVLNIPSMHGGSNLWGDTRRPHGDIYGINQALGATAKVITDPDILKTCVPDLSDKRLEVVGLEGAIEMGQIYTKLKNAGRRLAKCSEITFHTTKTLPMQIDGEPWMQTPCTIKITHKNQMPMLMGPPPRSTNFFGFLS

Row | Compound | EC50 [1, 2] [nM] | IC50 (human DGKζ; [3]) [nM] | IC50 (human DGKα; [4]) [nM] | IC50 (human DGKζ; [6]) [nM] | IC50 (human DGKα; [7]) [nM] | EC50 [1, 5] [nM] | EC50 [1, 8] [nM]
1 | Cc1ccc(C(c2ccc(C)cc2)N2C[C@H](C)N(c3nc(=O)n(C)c4ccc(C#N)nc34)C[C@H]2C)cc1 [Example 125] | – | – | – | 990 | 740 | – | 500
2 | CC[C@@H]1CN(c2nc(=O)n(C)c3ccc(C#N)nc23)[C@@H](C)CN1C(C)c1ccc(OC(C)C)cc1 (single isomer, unassigned) [Example 53] | – | – | – | 79 | 630 | 200 | –
3 | CC[C@@H]1CN(c2nc(=O)n(C)c3ccc(C#N)nc23)[C@@H](C)CN1C(C)c1ccc(C(F)(F)F)cc1F (single isomer, unassigned) [Example 58] | – | – | – | 54 | 270 | 22 | –
4 | C[C@@H]1CN(c2nc(=O)n(C)c3ccc(C#N)nc23)[C@@H](C)CN1C(c1ccc(F)cc1)c1nc(C2CC2)cs1 (single isomer, unassigned) [Example 158] | – | – | – | 570 | 660 | 1580 | –
5 | CC[C@H]1CN(C(C)c2ccc(C(F)(F)F)nc2)[C@H](CC)CN1c1nc(=O)n(C)c2ccc(C#N)nc12 (single isomer, unassigned) [Example 44] | – | – | – | 21 | 85 | 260 | –
6 | CC[C@@H]1CN(c2nc(=O)n(C)c3ccc(C#N)nc23)[C@@H](CC)CN1Cc1ccc2c(c1)OC(F)(F)O2 [Example 13, 4-((2S,5R)-4-((2,2-difluorobenzo[d][1,3]dioxol-5-yl)methyl)-2,5-diethylpiperazin-1-yl)-1-methyl-2-oxo-1,2-dihydropyrido[3,2-d]pyrimidine-6-carbonitrile] | – | – | – | 230 | 700 | – | 2120
7 | CC[C@H]1CN(C(c2ccc(F)cc2)c2ccon2)[C@H](CC)CN1c1nc(=O)n(C)c2ccc(C#N)nc12 (single isomer, unassigned) [Example 34] | – | – | – | 310 | 620 | 420 | –
8 | C[C@@H]1CN(c2nc(=O)n(C)c3ccc(C#N)nc23)[C@@H](C)CN1C(c1ccc(F)cc1)c1csc(C(F)(F)F)n1 (single isomer, unassigned) [Example 170] | – | – | – | 330 | 1610 | 96 | –
9 | CC(c1cc(F)c(F)c(F)c1)N1C[C@H](C)N(c2nc(=O)n(C)c3ccc(C#N)nc23)C[C@H]1C (single isomer, unassigned) [Example 139] | – | – | – | 2880 | 25600 | – | 20000
10 | COC[C@@H]1CN(c2nc(=O)n(C)c3ccc(C#N)nc23)[C@@H](C)CN1C(C)c1ccc(C(F)(F)F)cc1 (single isomer, unassigned) [Example 175] | – | – | – | 830 | 980 | 1690 | –
11 | CC[C@@H]1CN(c2nc(=O)n(C)c3ccc(C#N)nc23)[C@@H](C)CN1C(C)c1ccc(OCC2CC2)cc1F (single isomer, unassigned) [Example 69] | – | – | – | 14 | 210 | 33 | –
12 | CC[C@@H]1CN(c2nc(=O)n(C)c3ccc(C#N)nc23)[C@@H](C)CN1C(c1ccc(F)cc1)c1ccccn1 (single isomer, unassigned) [Example 88] | – | – | – | 76 | 110 | 48 | –
13 | CC[C@@H]1CN(c2nc(=O)n(C)c3ccc(C#N)nc23)[C@@H](C)CN1C(C)c1ccc(OCC2CC2)cc1 (single isomer, unassigned) [Example 68] | – | – | – | 480 | 1630 | – | 1900
14 | CC[C@H]1CN(C(C)c2ccc(OCC3CC3)cc2)[C@H](CC)CN1c1nc(=O)n(C)c2ccc(C#N)nc12 (single isomer, unassigned) [Example 24] | – | – | – | 630 | 680 | 450 | –
15 | C[C@H]1CN(C(c2ccc(F)cc2)c2ccc(C(F)(F)F)cn2)[C@H](CO)CN1c1nc(=O)n(C)c2ccc(C#N)nc12 (single isomer, unassigned) [Example 182] | – | – | – | 2030 | 430 | 2530 | –
16 | CC[C@@H]1CN(c2nc(=O)n(C)c3ccc(C#N)nc23)[C@@H](C)CN1C(C)c1ccc(OC(F)(F)F)cc1 (single isomer, unassigned) [Example 49] | – | – | – | 850 | 390 | 2340 | –

Continued, in another order:

Row | EC50 [1, 2] [nM] | IC50 (human DGKζ; [3]) [nM] | IC50 (human DGKα; [4]) [nM] | IC50 (human DGKζ; [6]) [nM] | IC50 (human DGKα; [7]) [nM] | Compound | EC50 [1, 5] [nM] | EC50 [1, 8] [nM]
17 | 2160 | 6050 | 1390 | – | – | C[C@@H]1CN(c2nc(=O)n(C)c3ccc(C#N)nc23)[C@@H](C)CN1C(c1ccc(F)cc1)c1ccc(C#N)cc1 (stereo partly drawn) [Example 375, 4-((2S,5R)-4-((4-cyanophenyl)(4-fluorophenyl)methyl)-2,5-dimethylpiperazin-1-yl)-1-methyl-2-oxo-1,2-dihydropyrido[3,2-d]pyrimidine-6-carbonitrile] | – | –
18 | – | – | – | 1410 | 840 | CC[C@@H]1CN(c2nc(=O)n(C)c3ccc(C#N)nc23)[C@@H](C)CN1C(C)c1ccc(OCC2CC2)cc1F (single isomer, unassigned) [Example 70] | 1440 | –
19 | – | – | – | 21 | 40 | CC[C@@H]1CN(c2nc(=O)n(C)c3ccc(C#N)nc23)[C@@H](C)CN1C(C)c1ccc(C2CC2)cc1 (single isomer, unassigned) [Example 63] | 70 | –
20 | – | – | – | 1080 | 2270 | CC[C@H]1CN(C(C)c2ccc(C3CC3)cc2F)[C@H](CC)CN1c1nc(=O)n(C)c2ccc(C#N)nc12 (single isomer, unassigned) [Example 41] | 470 | –
21 | – | – | – | 12400 | 4920 | C[C@H]1CN(C(c2ccc(F)cc2)c2ccc(C(F)(F)F)cn2)[C@H](CO)CN1c1nc(=O)n(C)c2ccc(C#N)nc12 (single isomer, unassigned) [Example 181] | 730 | –
22 | 520 | 370 | 240 | – | – | CC(c1ccc(OC(C)(C)C#N)cc1)N1C[C@H](C)N(c2nc(=O)n(C)c3ccc(C#N)nc23)C[C@H]1C (stereo partly drawn) [Example 377, 4-((2S,5R)-4-(1-(4-((2-cyanopropan-2-yl)oxy)phenyl)ethyl)-2,5-dimethylpiperazin-1-yl)-1-methyl-2-oxo-1,2-dihydropyrido[3,2-d]pyrimidine-6-carbonitrile] | – | –
23 | – | – | – | 220 | 1470 | CC[C@H]1CN(C(C)c2ccc(C(C)(C)C#N)cc2)[C@H](CC)CN1c1nc(=O)n(C)c2ccc(C#N)nc12 (stereo partly drawn) [Example 197, 4-((2S,5R)-4-(1-(4-(2-cyanopropan-2-yl)phenyl)ethyl)-2,5-diethylpiperazin-1-yl)-1-methyl-2-oxo-1,2-dihydropyrido[3,2-d]pyrimidine-6-carbonitrile] | 310 | –
24 | – | – | – | 2450 | 1540 | CC[C@@H]1CN(c2nc(=O)n(C)c3ccc(C#N)nc23)[C@@H](C)CN1C(C)c1ccc(OC(F)(F)F)cc1F (single isomer, unassigned) [Example 82] | 530 | –
25 | – | – | – | 1410 | 4500 | C[C@@H]1CN(c2nc(=O)n(C)c3ccc(C#N)nc23)[C@@H](C)CN1Cc1ccc2c(c1)OC(F)(F)O2 [Example 135, 4-((2S,5R)-4-((2,2-difluorobenzo[d][1,3]dioxol-5-yl)methyl)-2,5-dimethylpiperazin-1-yl)-1-methyl-2-oxo-1,2-dihydropyrido[3,2-d]pyrimidine-6-carbonitrile] | – | 10700
26 | – | – | – | 23 | 79 | CC[C@@H]1CN(c2nc(=O)n(C)c3ccc(C#N)nc23)[C@@H](C)CN1C(c1ccc(F)cc1)c1ccc(C2CC2)cn1 (single isomer, unassigned) [Example 76] | 180 | –
27 | – | – | – | 230 | 2 | CC[C@@H]1CN(c2nc(=O)n(C)c3ccc(C#N)nc23)[C@@H](CC)CN1Cc1ccc(OC(F)(F)F)cc1F [Example 27, 4-((2S,5R)-2,5-diethyl-4-(2-fluoro-4-(trifluoromethoxy)benzyl)piperazin-1-yl)-1-methyl-2-oxo-1,2-dihydropyrido[3,2-d]pyrimidine-6-carbonitrile] | – | 620
28 | – | – | – | 190 | 83 | CC(C)c1ccc(CN2C[C@H](C)N(c3nc(=O)n(C)c4ccc(C#N)nc34)C[C@H]2C)cc1 [Example 137, 4-((2S,5R)-4-(4-isopropylbenzyl)-2,5-dimethylpiperazin-1-yl)-1-methyl-2-oxo-1,2-dihydropyrido[3,2-d]pyrimidine-6-carbonitrile] | – | 2650
29 | – | – | – | 52 | 230 | CC[C@@H]1CN(c2nc(=O)n(C)c3ccc(C#N)nc23)[C@@H](C)CN1C(C)c1ccc(OC(C)C)cc1 (single isomer, unassigned) [Example 52] | 53 | –
30 | – | – | – | 130 | 39 | C[C@@H]1CN(c2nc(=O)n(C)c3ccc(C#N)nc23)[C@@H](C)CN1C(c1ccc(F)cc1)c1nc(C2CC2)no1 (single isomer, unassigned) [Example 106] | 240 | –
31 | – | – | – | 380 | 52 | CC[C@@H]1CN(c2nc(=O)n(C)c3ccc(C#N)nc23)[C@@H](C)CN1C(C)c1ccc(C#N)cc1 (single isomer, unassigned) [Example 61] | 4500 | –
32 | – | – | – | 960 | 250 | CC[C@@H]1CN(c2nc(=O)n(C)c3ccc(C#N)nc23)[C@@H](C)CN1C(c1ccc(F)cc1)c1ccon1 (single isomer, unassigned) [Example 74] | 430 | –
